“Also recorded” adds a separate entry of the source.
Experiments:
T1D patients = type: in vivo, human
Experimental: Gastrin is a natural hormone that is secreted by the stomach and is involved in fetal pancreas development. […] Building on these observations, it was tested whether gastrin treatment will improve islet engraftment, induced beta cell expansion/function, and enhanced islet transplant outcomes in T1D individuals. A gastrin analogue (GAST-17) was produced and obtained FDA-IND approval to evaluate its safety and efficacy in a Phase I/II, prospective, single-arm trial to improve outcomes in T1D recipients undergoing a single islet transplant and two 30-day courses for GAST-17. The trial has been initiated with the first two treated individuals achieving insulin independence with roughly half of the islet dose normally required.
The success of clinical islet transplantation depends on transplantation of adequate islet mass and minimizing graft loss secondary to ischemia and inflammation. After infusion into the portal vein, islets are exposed to damaging inflammatory factors (the so-called instant blood-mediated inflammatory reaction, IBMIR). This involves activation of the complement and coagulation cascades, ultimately resulting in clot formation and infiltration of leukocytes into the islets. The IBMIR may be triggered by islet surface molecules, such as tissue factor and collagen residues that are normally not in direct contact with the blood. Also, ischemic stress during islet isolation results in production of inflammatory mediators by islets. Strategies to mitigate the IBMIR include the treatment of recipients with anticoagulants or pre-conditioning islets with anti-inflammatory agents. As inflammatory reactions are thought to negatively impact islet engraftment in the early post-transplant period, etanercept, a TNFα mitigator, and anakinra, an IL-1 receptor antagonist, are used to limit acute transplant-related inflammation. […]
Treatment course 1. […] Subjects are monitored for adverse effects and assessed for preliminary efficacy at 1, 2.5, and 6 months after starting the first course of GAST-17. […]

non-diabetic Wistar rats = assay: Beta and alpha cell content of pancreas by laser scanning cytometry after 30-day treatment; type: in vivo, rat
Experimental: The islet expansion effects of GAST-17 were evaluated in non-diabetic Wistar rats (10 males and 10 females in each group). At the end of 30-day treatment, animals were terminated, pancreata excised and immuno-stained for beta and alpha cell content using laser scanning cytometry (LSC) (FIGS. 2A and 2B).
Gastrin analogue, GAST-17, stimulates beta cell expansion. T2D individuals display a loss of beta cell numbers and function. Increasing beta cell mass is considered a possible therapy for T2D (37). The islet expansion effects of GAST-17 were evaluated in non-diabetic Wistar rats (10 males and 10 females in each group). At the end of 30-day treatment, pancreata were excised and stained for beta and alpha cell content counting using laser scanning cytometry (FIGS. 24A and 24B).

human islets [1] = assay: qPCR gene expression in isolated human islets treated for 48 hours; type: cell-based
Experimental: Isolated human islets from 11 donors with varied glycemic control (HbA1c 5.2-10.4) were treated with GAST-17 for 48 hours and gene expression was analyzed by qPCR. […] Gene expression levels were not increased in islets from donors with an HbA1c <6.0 (FIG. 9). The increase in insulin mRNA correlated with the HbA1c levels, with higher insulin transcripts seen in islets from donors with more elevated HbA1c (FIG. 10).

human islets [2] = assay: Human islets challenged with inflammatory cytokines, glucose-mediated insulin secretion; type: cell-based; conditions: inflammatory cytokine challenge
Experimental: Gastrin is expressed in insulin^+ and somatostatin^+ cells in islets from people with T2D. As noted, gastrin increased insulin/somatostatin in delta cells, and this correlated positively with islet donor A1c levels (64). Extending these published and new findings, human islets were challenged with inflammatory cytokines (to mimic the harsh environment of transplantation) in the presence and absence of GAST-17 and glucose-mediated insulin secretion was determined.

human islets [3] = assay: Long-term human islet culture with and without GAST-17, inflammatory gene expression; type: cell-based; conditions: non-diabetic donors, long-term culture (1516 days), 21% oxygen
Experimental: Long-term islet culture is associated with expression of inflammatory cytokines and islet stress/damage. Human islets from non-diabetic donors were cultured with and without GAST-17 long-term (1516 days) at normal oxygen concentrations (21%).

[4] = test system: transplanted human islets; assay: Human islets transplanted to livers of NOD mice: 18F-TCE4 microPET, insulin staining, blood glucose; type: in vivo, mouse; conditions: 150 μg/kg/dose three times daily, 30 days
Experimental: Isolated human islets were transplanted (Tx) to the livers of NOD mice followed by GAST-17 treatment for 30 days (150 μg/kg/dose, injected three times daily) (Tx+Treated, n=7) and compared to mice receiving islet transplant alone (Tx only, n=5) and untreated controls (Normal, n=5). After completion of treatment, whole mice and organs of interest were imaged (in vivo and ex vivo) with ^18F-TC-Exendin-4 (TCE4) using microPET and a high specific activity labeling technique developed at COH for targeting islets (49). […] Beta cell mass was calculated as percent beta cell area of the total cell surface area found on immunolabeled tissue sections. Data from 4 livers from mice treated with islet transplant alone (“−Gastrin”) and five livers from mice treated with islet transplant and gastrin treatment (“+Gastrin”) (˜32 slides per liver) were assessed.
Gastrin analogue, GATS-17, promotes expansion/neogenesis of transplanted human islets. Isolated human islets were transplanted (Tx) into livers of NOD/SCID mice followed by GAST-17 treatment for 30 days (150 μg/kg/dose, injected three times daily) (Tx+Treated, n=7) and compared to mice receiving islet transplant alone (Tx only, n=5) and untreated controls (Normal, n=5). After completion of treatment, whole mice and organs of interest were imaged (in vivo and ex vivo) with ^18F-TC-Exendin-4 (TCE4) using microPET (a high specific activity labeling technique developed at COH for targeting islets).

gastrin receptor CCKBR = target: T1, gastrin receptor CCKBR (Homo sapiens, UniProt P32239); assay: Gastrin receptor blockade with YM022, qPCR in human islets; type: cell-based; conditions: YM022 together with 100 nM gastrin, donors with high HbA1c
T1 construct: Human islets express the gastrin receptor CCKBR; from tissue; host or cells: isolated human pancreatic islets from donors
T1 sequence (P32239 whole entry): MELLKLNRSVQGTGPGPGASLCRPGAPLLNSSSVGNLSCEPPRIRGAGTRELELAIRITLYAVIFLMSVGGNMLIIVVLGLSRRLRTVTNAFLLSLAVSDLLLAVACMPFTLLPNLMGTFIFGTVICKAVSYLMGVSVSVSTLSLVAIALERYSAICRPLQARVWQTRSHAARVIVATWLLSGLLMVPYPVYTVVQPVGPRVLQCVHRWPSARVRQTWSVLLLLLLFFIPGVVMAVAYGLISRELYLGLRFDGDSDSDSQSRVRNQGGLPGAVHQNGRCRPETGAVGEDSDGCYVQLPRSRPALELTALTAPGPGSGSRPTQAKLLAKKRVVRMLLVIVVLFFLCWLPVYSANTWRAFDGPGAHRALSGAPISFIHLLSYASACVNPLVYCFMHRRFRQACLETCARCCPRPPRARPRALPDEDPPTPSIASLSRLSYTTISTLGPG
Experimental: To establish that gastrin effect is mediated through activation of the gastrin receptor CCKBR, islets were treated with either 100 nM gastrin or 100 nM gastrin together with the CCKBR antagonist YM022.

[5] = donors HbA1c >6.0 (n=5), P<0.0001

Compound	insulin independence (T1D patients; first two T1D patients, single islet transplant <6,100 IEQ/kg)	engraftment and blood glucose normalization (T1D patients; two T1D individuals, 15 μg/kg twice daily, month 1 and 7, <6,100 IEQ/kg)	time to insulin freedom (T1D patients; two patients, single IT (<6,100 IEQ/kg BW))	percentage of alpha cells (non-diabetic Wistar rats; 30-day treatment vs controls)	average percentage of beta cells of total cells per slide (non-diabetic Wistar rats; 30-day treatment, all treatment groups vs controls)	gene expression levels (insulin, somatostatin, glucagon) (human islets [1]; donors HbA1c <6.0)	insulin transcripts (human islets [1]; [5])	somatostatin transcripts (human islets [1]; [5])	glucagon transcripts (human islets [1]; donors HbA1c >6.0 (n=5), P<0.02)	mRNA levels of transcription factors MAFA, MNX1, NKX2.2, NKX6.1, PDX1 and HHEX (human islets [1]; only in HbA1c >6.0 group)	glucose-mediated insulin secretion (human islets [2])	human islet damage from inflammatory cytokines (human islets [2])	insulin+/somatostatin+ cell numbers (human islets [2])	expression of IL-10 (human islets [3])	islet expression of inflammatory genes (human islets [3])	native beta cell expansion, ex vivo imaging of the pancreas ([4]; p=0.000063)	18F-TCE4 uptake by islet grafts in liver, in vivo (whole body images) ([4]; vs control group, p=0.000015)	18F-TCE4 uptake by islet grafts, ex vivo (excised liver) ([4]; vs control group, p=0.000036)	insulin, somatostatin and glucagon mRNA levels (gastrin receptor CCKBR)
[Leu^15] Gastrin-17 [GAST-17]	achieving insulin independence with half of the islet mass normally required	rapid engraftment and total normalization of blood glucose	achieved insulin freedom within two weeks	did not change	significantly increased	not increased	significant increase	significant increase	significant increase	significant increases	enhanced insulin secretion	reduced human islet damage from inflammatory cytokines	increased insulin+/somatostatin+ cell numbers	increased expression of IL-10	reduced islet expression of inflammatory genes	significant expansion	significantly increased; also recorded: significantly higher	significantly increased; also recorded: significantly higher	–
Cc1cccc(NC(=O)N[C@@H]2N=C(c3ccccc3)c3ccccc3N(CC(=O)c3ccccc3C)C2=O)c1 [YM022]	–	–	–	–	–	–	–	–	–	–	–	–	–	–	–	–	–	–	remained un-changed
